Data from paper PMC8512853, “Synthesis, Bioactivity, Pharmacokinetic and Biomimetic Properties of Multi-Substituted Coumarin Derivatives” (Molecules, 2021).

System: HaCaT cells
Experiment: MTT cell viability assay, HaCaT
Format: cell-based, human
Conditions: 100 μM
How it was run: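 HaCaT cells seeded, grown 24 h (37 °C, 5% CO2), then exposed 24 h to each compound at 100 μM in DMEM; MTT added for 4 h, formazan dissolved in DMSO, OD read at 540 nm (reference 720 nm). Triplicates versus untreated cells, no-cell blank and 100 μM silibinin as cell-killing standard.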

SMILES | cytotoxicity in HaCaT [%]
Cc1c(-c2ccc(O)cc2)c(=O)oc2ccc(Cl)cc12 [Compound 4j, 6-chloro-3-(4-hydroxyphenyl)-4-methyl-chromen-2-one] | 73
Cc1c(-c2ccc(Cl)cc2)c(=O)oc2cccc(O)c12 [Compound 4c, 3-(4-chlorophenyl)-5-hydroxy-4-methyl-chromen-2-one] | 63.7
